Results on 27 molecules are retold here after US11590139B2, “Substituted aminopurine compounds, compositions thereof, and methods of treatment therewith” (Signal Pharmaceuticals, LLC, priority 2014, dated 2023).

Bounds are passed on as bounds.

The first assay deals with Lox-IMVI melanoma cell line. The assay is described as follows: Lox-IMVI anti-proliferative assay (growth inhibition, Cell Titer-Glo). Type of assay: cell-based, human. As to conditions: Homo sapiens; IC50 activity level in the cell-based Lox-IMVI anti-proliferative assay; read-out: Activity. A digest of the protocol:
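Viability read by ATP luminescence (Cell Titer-Glo) at t0 and after 72 h at 37 °C, 5% CO2, with normalisation to DMSO-treated cells. Compound tested at 0.5 nM–10 μM in 3-fold, 10-point series (0.2% DMSO final) on Lox-IMVI in RPMI+10% FBS; IC50 by 4-parameter sigmoidal fit.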
`NC(=O)[C@H]1CC[C@@H](n2c(Nc3c(F)cccc3Cl)nc3cnc(N[C@@H]4CCC[C@H](O)C4)nc32)CC1` [Example 350, (1S,4s)-4-(8-(2-chloro-6-fluorophenylamino)-2-((1R,3S)-3-hydroxycyclohexylamino)-9H-purin-9-yl)cyclohexanecarboxamide]: the IC50 was in the range of 500 to 1000 nM.

Consider `NC(=O)[C@H]1CC[C@@H](n2c(Nc3c(F)cc(Cl)cc3Cl)nc3cnc(N[C@@H]4CCC[C@H](O)C4)nc32)CC1` [Example 361, (1S,4s)-4-(8-(2,4-dichloro-6-fluorophenylamino)-2-((1R,3S)-3-hydroxycyclohexylamino)-9H-purin-9-yl)cyclohexanecarboxamide], for which the IC50 is less than 250 nM. Regarding `NC(=O)[C@H]1CC[C@@H](n2c(Nc3c(F)cc(Cl)cc3F)nc3cnc(N[C@@H]4CC[C@@H](O)C4)nc32)CC1` [Example 215, (1S,4s)-4-(8-(4-chloro-2,6-difluorophenylamino)-2-((1R,3R)-3-hydroxycyclopentylamino)-9H-purin-9-yl)cyclohexanecarboxamide], the IC50 fell in the range of 250 to 500 nM. For the molecule `NC(=O)[C@H]1CC[C@@H](n2c(Nc3c(Cl)cc(Cl)cc3Cl)nc3cnc(NC4CCS(=O)(=O)CC4)nc32)CC1` [Example 92, (1s,4s)-4-(2-((1,1-dioxidotetrahydro-2H-thiopyran-4-yl)amino)-8-((2,4,6-trichlorophenyl)amino)-9H-purin-9-yl)cyclohexane-1-carboxamide], the IC50 is more than 1000 nM. In the case of `NC(=O)[C@H]1CC[C@@H](n2c(Nc3c(Cl)cccc3Cl)nc3cnc(NC4CC5(COC5)C4)nc32)CC1` [Example 174, (1s,4s)-4-(2-(2-oxaspiro[3.3]heptan-6-ylamino)-8-(2,6-dichlorophenylamino)-9H-purin-9-yl)cyclohexanecarboxamide], the IC50 is more than 1000 nM. Take `Cc1ccc(Nc2nc3cnc(NC4CCOCC4)nc3n2[C@H]2CC[C@@H](C(N)=O)CC2)c(F)c1F` [Example 83, (1s,4s)-4-(8-(2,3-difluoro-4-methylphenylamino)-2-(tetrahydro-2H-pyran-4-ylamino)-9H-purin-9-yl)cyclohexanecarboxamide]: the IC50 lay within 500 to 1000 nM. With `CC1(C)CC[C@@H](Nc2ncc3nc(Nc4c(Cl)cc(Cl)cc4Cl)n([C@H]4CC[C@@H](C(N)=O)CC4)c3n2)C[C@H]1O` [Example 387, (1S,4s)-4-(2-((1R,3R)-3-hydroxy-4,4-dimethylcyclohexylamino)-8-(2,4,6-tnchlorophenylarnino)-9H-purin-9-yl)cyclohexanecarboxamide], the IC50 was more than 1000 nM.

Take `NC(=O)[C@H]1CC[C@@H](n2c(Nc3c(F)cc(F)cc3F)nc3cnc(N[C@H]4COC[C@@H]4O)nc32)CC1` [Example 311, (1R,4s)-4-(2-((3S,4R)-4-hydroxytetrahydrofuran-3-ylamino)-8-(2,4,6-trifluorophenylamino)-9H-purin-9-yl)cyclohexanecarboxamide]: the IC50 is more than 1000 nM. On the same count and under the same terms, in the case of `NC(=O)[C@H]1CC[C@@H](n2c(Nc3c(F)cccc3Cl)nc3cnc(NC4CC(F)(F)C4)nc32)CC1` [Example 225, (1s,4s)-4-(8-(2-chloro-6-fluorophenylamino)-2-(3,3-difluorocyclobutylamino)-9H-purin-9-yl)cyclohexanecarboxamide] it was more than 1000 nM; in that of `CC[C@@H](CO)Nc1ncc2nc(Nc3c(Cl)cccc3Cl)n([C@H]3CC[C@@H](C(N)=O)CC3)c2n1` [Example 153, (1R,4s)-4-(8-(2,6-dichlorophenylamino)-2-((S)-1-hydroxybutan-2-ylamino)-9H-purin-9-yl)cyclohexanecarboxamide], more than 1000 nM; in that of `NC(=O)[C@H]1CC[C@@H](n2c(Nc3cc(F)c(Cl)cc3F)nc3cnc(NC4CCC(F)(F)CC4)nc32)CC1` [Example 238, (1s,4s)-4-(8-(4-chloro-2,5-difluorophenylamino)-2-(4,4-difluorocyclohexylamino)-9H-purin-9-yl)cyclohexanecarboxamide], more than 1000 nM. Regarding `NC(=O)[C@H]1CC[C@@H](n2c(Nc3c(F)cc(F)cc3F)nc3cnc(NC4CCC(F)(F)CC4)nc32)CC1` [Example 288, (1s,4s)-4-(2-(4,4-difluorocyclohexylamino)-8-(2,4,6-trifluorophenylamino)-9H-purin-9-yl)cyclohexanecarboxamide], the IC50 lay in the range of 250 to 500 nM. `CC[C@@H](CO)Nc1ncc2nc(Nc3ccc(Cl)cc3Cl)n([C@H]3CC[C@@H](C(N)=O)CC3)c2n1` [Example 149, (1R,4s)-4-(8-(2,4-dichlorophenylamino)-2-((S)-1-hydroxybutan-2-ylamino)-9H-purin-9-yl)cyclohexanecarboxamide]: the IC50 was more than 1000 nM. Consider `Cc1cc(F)c(Nc2nc3cnc(NC4CCOCC4)nc3n2[C@H]2CC[C@@H](C(N)=O)CC2)c(F)c1` [Example 115, (1s,4s)-4-(8-(2,6-difluoro-4-methylphenylamino)-2-(tetrahydro-2H-pyran-4-ylamino)-9H-purin-9-yl)cyclohexanecarboxamide], for which the IC50 is 500 to 1000 nM. For the molecule `NC(=O)[C@H]1CC[C@@H](n2c(Nc3ccccc3Cl)nc3cnc(NC4CCCC4)nc32)CC1` [Example 93, (1s,4s)-4-(8-(2-chlorophenylamino)-2-(cyclopentylamino)-9H-purin-9-yl)cyclohexanecarboxamide], the IC50 is more than 1000 nM.

Staying with this assay, now noted: Homo sapiens; Lox-IMVI anti-proliferative assay, IC50 activity level; read-out: Activity.
As for `C[C@H]1COCC[C@@H]1Nc1ncc2nc(Nc3c(Cl)cc(Cl)cc3Cl)n([C@H]3CC[C@@H](C(N)=O)CC3)c2n1` [Example 500, (1R,4s)-4-(2-((3R,4S)-3-methyltetrahydro-2H-pyran-4-ylamino)-8-(2,4,6-trichlorophenylamino)-9H-purin-9-yl)cyclohexanecarboxamide], the IC50 is 500 to 1000 nM.

Regarding `C[C@]1(C(N)=O)CC[C@@H](n2c(Nc3c(Cl)cc(C#N)cc3Cl)nc3cnc(NC4CCOCC4)nc32)CC1` [Example 535, (1s,4s)-4-(8-(2,6-dichloro-4-cyanophenylamino)-2-(tetrahydro-2H-pyran-4-ylamino)-9H-purin-9-yl)-1-methylcyclohexanecarboxamide], the IC50 was less than 250 nM. Consider `NC(=O)[C@H]1CC[C@@H](n2c(Nc3c(F)cc(F)cc3F)nc3cnc(N[C@@H]4CCO[C@H](CO)C4)nc32)CC1` [Example 446, (1S,4s)-4-(2-((2S,4R)-2-(hydroxymethyl)tetrahydro-2H-pyran-4-ylamino)-8-(2,4,6-trifluorophenylamino)-9H-purin-9-yl)cyclohexanecarboxamide], for which the IC50 was more than 1000 nM. Turning to `N#Cc1cc(F)c(Nc2nc3cnc(NC4CC(F)(F)C4)nc3n2[C@H]2CC[C@@H](C(N)=O)CC2)c(Cl)c1` [Example 400, (1s,4s)-4-(8-(2-chloro-4-cyano-6-fluorophenylamino)-2-(3,3-difluorocyclobutylamino)-9H-purin-9-yl)cyclohexanecarboxamide], the IC50 fell in the range of 500 to 1000 nM. `N#Cc1cc(F)c(Nc2nc3cnc(NC4CC5(COC5)C4)nc3n2[C@H]2CC[C@@H](C(N)=O)CC2)c(F)c1` [Example 573, (1s,4s)-4-(2-(2-oxaspiro[3.3]heptan-6-ylamino)-8-(4-cyano-2,6-difluorophenylamino)-9H-purin-9-yl)cyclohexanecarboxamide]: the IC50 was more than 1000 nM. In the case of `C[C@@H](CO)Nc1ncc2nc(Nc3c(Cl)cc(C(F)(F)F)cc3Cl)n([C@H]3CC[C@](C)(C(N)=O)CC3)c2n1` [Example 480, (1S,4r)-4-(8-(2,6-dichloro-4-(trifluoromethyl)phenylamino)-2-((S)-1-hydroxypropan-2-ylamino)-9H-purin-9-yl)-1-methylcyclohexanecarboxamide], the IC50 is more than 1000 nM. With `C[C@@H](CO)Nc1ncc2nc(Nc3c(F)cc(C#N)cc3Cl)n([C@H]3CC[C@@](C)(C(N)=O)CC3)c2n1` [Example 552, (1R,4s)-4-(8-(2-chloro-4-cyano-6-fluorophenylamino)-2-((S)-1-hydroxypropan-2-ylamino)-9H-purin-9-yl)-1-methylcyclohexanecarboxamide], the IC50 is less than 250 nM.

Turning to `C[C@]1(C(N)=O)CC[C@H](n2c(Nc3c(Cl)cc(Cl)cc3Cl)nc3cnc(NC4CCOCC4)nc32)CC1` [Example 474, (1r,4r)-1-methyl-4-(2-(tetrahydro-2H-pyran-4-ylamino)-8-(2,4,6-trichlorophenylamino)-9H-purin-9-yl)cyclohexanecarboxamide], the IC50 was more than 1000 nM.

Still in this assay, the particulars now being: Homo sapiens; Lox-IMVI melanoma cell line, anti-proliferative assay; read-out: Activity (IC50 activity level).
For the molecule `N#Cc1ccc(Nc2nc3cnc(NC4CCOCC4)nc3n2[C@H]2CC[C@@H](C(N)=O)CC2)c(Cl)c1Cl` [Example 696, (1s,4s)-4-(8-(2,3-dichloro-4-cyanophenylamino)-2-(tetrahydro-2H-pyran-4-ylamino)-9H-purin-9-yl)cyclohexanecarboxamide], the IC50 lay in the range of 500 to 1000 nM. The same measure, in the same setting: the result for `C[C@]1(C(N)=O)CC[C@@H](n2c(Nc3c(F)cc(C#N)cc3Cl)nc3cnc(NC4CCC4)nc32)CC1` [Example 600, (1s,4s)-4-(8-(2-chloro-4-cyano-6-fluorophenylamino)-2-(cyclobutylamino)-9H-purin-9-yl)-1-methylcyclohexanecarboxamide] reads less than 250 nM; that for `NC(=O)[C@H]1CC[C@@H](n2c(Nc3c(Cl)cc(Cl)cc3Cl)nc3cnc(NC[C@@H]4CCCC[C@@H]4O)nc32)CC1` [Example 654, (1R,4s)-4-(2-(((1S,2S)-2-hydroxycyclohexyl)methylamino)-8-(2,4,6-trichlorophenylamino)-9H-purin-9-yl)cyclohexanecarboxamide], more than 1000 nM; that for `CC(=O)N1CCC[C@@H](Nc2ncc3nc(Nc4c(Cl)cc(Cl)cc4Cl)n([C@H]4CC[C@@H](C(N)=O)CC4)c3n2)C1` [Example 710, (1S,4s)-4-(2-((R)-1-acetylpiperidin-3-ylamino)-8-(2,4,6-trichlorophenylamino)-9H-purin-9-yl)cyclohexanecarboxamide], more than 1000 nM.
